Results reported in patent publication US20260224538A1 (Purdue Research Foundation, priority 2023, published 2026).

Assays:
Format in all cases: biochemical
[1] = target: T1, tau isoform 2N4R (Homo sapiens, UniProt P10636); assay: TEM of tau isoform 2N4R fibrils; conditions: compound 100 μM, tau 10 μM, molar ratio 1:10
T1 construct: made in house; host or cells: E. coli BL21(DE3)
Method: (§1) Transmission electron microscopy (TEM). After performing analysis with ThT fluorescence assay, TEM was utilized to detect fibril formation. A volume of 10 μL was applied to a 400-mesh Formvar-carbon-coated copper grid (Electron Microscopy Sciences, Hatfield, PA). The grids were incubated for 1 minute and washed three times with distilled water. They were carefully air-dried and incubated for 1 minute in a fresh solution of 1% uranyl acetate. Samples were air-dried and observed using a transmission microscope. Visualization of the grids was performed with TEM (JEOL 1400 Flash, Japan). Acquisition of pictures was performed with settings of accelerating voltage of 100 kV and magnification of 25 k and/or 40 k.

[2] = target: T2, transthyretin fragment peptide (TTR81-127) (Homo sapiens, UniProt P02766); assay: ThT fluorescence assay of TTR81-127 fibril formation; conditions: compounds at 100 μM, TTR81-127 10 μM, control 0.25% DMSO
T2 construct: TTR fragment 81-127 was obtained from AnaSpec; purchased AnaSpec; host or cells: synthetic peptide
Method: (§2) Thioflavin-T (ThT) fluorescence assays. Thioflavin-T (ThT) fluorescence assays were used to monitor fibril formation of recombinant Ap (fragments 1-40 and 1-42), recombinant α-syn, recombinant tau isoform 2N4R, synthetic IAPP, and synthetic TTR peptides treated with BTA and its derivatives. The IAPP ThT assay was performed in 10 mM PBS (pH 7.4) at a final concentration of 10 μM for both IAPP and ThT as published previously. Aβ fragments 1-40 and 1-42 were tested at 7 μM in 10 mM of PBS using ThT at a final concentration of 20 μM. Kinetics of α-syn fibrillization were performed as published previously.^36-37 TTR fragment kinetics of fibril formation were assessed at 10 μM in 100 mM sodium acetate buffer supplemented with 100 mM KCl and 1 mM ethylenediaminetetraacetic acid (EDTA) (pH 4) with 20 μM ThT. The fluorescence emission experiments were performed with the excitation and emission wavelengths set at 440 and 485 nm, respectively, with a Synergy HT multi-mode microplate reader (BioTek, Winooski, VT). Samples were measured in three replicates, and the experiments were repeated three times using at least two different stock solutions. For each time point, arbitrary units of fluorescence were calculated from the mean values normalized against the maximum value in each completed assay. The lag time for each condition was calculated as previously described. All results contained in histograms were presented as mean±SEM. Data were analyzed by the one-way analysis of variance with Dunnett's multiple comparisons between controls and compounds. Differences were considered statistically significant at p<0.05.

[3] = target: T3, TTR101-125 (Homo sapiens, UniProt P02766); assay: ThT fluorescence assay of TTR101-125 fibril formation; conditions: screen on prone-to-aggregate proteins (FIG. 4A)
T3 construct: TTR fragments 1-25, 26-50, 51-75, 76-100, 81-105, 101-125, and 101-125 were obtained from GenScript; purchased GenScript; host or cells: synthetic peptide
Method: as §2

[4] = target: T4, α-syn (Homo sapiens, UniProt P37840); assay: Transmission electron microscopy (TEM) of α-syn fibrils; conditions: compound 100 μM
T4 construct: purchased rPeptide
Method: as §1

[5] = target: T1, tau isoform 2N4R; assay: PICUP, tau isoform 2N4R oligomerization
Method: The bacterial expression plasmid consisting of the vector pRK172 carrying a cDNA encoding the human Tau 2N4R isoform was obtained from Dr. David Eliezer (Weill Cornell Medicine, New York, NJ). For protein expression, E. coli BL21(DE3) cells were transformed with the plasmid and grown in LB media supplemented with ampicillin (100 μg/mL). Protein over-expression was induced by the addition of 1 mM IPTG for 4 hours at 37° C., and cells were pelleted by centrifugation at 6,000 g for 15 minutes at 4° C. The cells were resuspended in lysis buffer (20 mM MES, 400 mM NaCl, 0.2 mM MgCl2, 1 mM EGTA, protease inhibitor cocktail (P8340, Sigma Aldrich), 0.25 mg/mL lysozyme, and 1 μg/mL DNase 1, pH 6.8) and lysed by a French press cell disruptor at 4° C., after which the lysate was boiled for 20 minutes. Denatured proteins were pelleted by centrifugation at 30,000 g for 30 minutes at 4° C., and the supernatant was dialyzed overnight against cation exchange buffer (20 mM MES, 50 mM NaCl, 1 mM MgCl2, 1 mM EGTA, 2 mM DTT, 0.1 mM PMSF, pH 6.8). The dialysate was loaded onto a HiPrep SP HP column, and proteins were eluted with a linear gradient ranging from 50 mM to 1 M NaCl. Fractions containing tau isoform 2N4R were pooled, and the resulting protein solution was dialyzed against PBS (pH 7.4) and stored at −80° C.
(§3) Photo-induced Cross-linking of Unmodified Proteins (PICUP) Assay. To induce oligomerization by cross-linking, α-syn (from Rpeptide, LLC) and tau isoform 2N4R were diluted in 10 mM phosphate buffer (pH 7.4) to reach a final concentration of 10 μM. Different compounds were added to the protein solution at a final concentration of 50 μM, resulting in a molar ratio of 1:5. To confirm the gradual effect of the compounds on the inhibition of α-syn oligomerization, the compounds were tested at final concentrations of 3.125, 6.25, 12.5, 25, and 50 μM. The controls consisted of samples without light exposition, without Ru(bpy) or ammonium persulfate, and without compound (i.e., 0.125% DMSO). The cross-linking reaction was initiated by the addition of 2 μL of Ru(bpy) (300 μM final concentration) and 2 μL ammonium persulfate (6 mM final concentration). Samples were irradiated immediately. Light exposure was of a one-second duration for α-syn and a three-second duration for tau isoform 2N4R, with a 53 W (120 V) incandescent lamp installed in a homemade dark-box. Each tube contained a final volume of 20 μL. After irradiation, 8.3 μL of Laemmli loading buffer containing 15% β-mercaptoethanol were immediately added to the solution, followed by incubation at 95° C. for 10 minutes. The cross-linked samples were separated on a 16% SDS-PAGE gel and visualized by Coomassie blue staining.

[6] = target: T5, Aβ1-42 (Homo sapiens, UniProt P05067); assay: ThT fluorescence assay of Aβ1-42 fibril formation; conditions: screen on prone-to-aggregate proteins (FIG. 2A, FIG. 4A); Aβ 7 μM
T5 construct: α-syn, Aβ1-40, Aβ1-42 were procured from rPeptide; purchased rPeptide
Method: as §2

[7] = target: T4, α-syn; assay: Photo-induced cross-linking of unmodified proteins (PICUP), α-syn oligomerization; conditions: for α-syn oligomer formation (PICUP): compound 50 μM, molar ratio 1:5 (protein:compound)
Method: as §3

T1 sequence (P10636 1-441 isoform P10636-8): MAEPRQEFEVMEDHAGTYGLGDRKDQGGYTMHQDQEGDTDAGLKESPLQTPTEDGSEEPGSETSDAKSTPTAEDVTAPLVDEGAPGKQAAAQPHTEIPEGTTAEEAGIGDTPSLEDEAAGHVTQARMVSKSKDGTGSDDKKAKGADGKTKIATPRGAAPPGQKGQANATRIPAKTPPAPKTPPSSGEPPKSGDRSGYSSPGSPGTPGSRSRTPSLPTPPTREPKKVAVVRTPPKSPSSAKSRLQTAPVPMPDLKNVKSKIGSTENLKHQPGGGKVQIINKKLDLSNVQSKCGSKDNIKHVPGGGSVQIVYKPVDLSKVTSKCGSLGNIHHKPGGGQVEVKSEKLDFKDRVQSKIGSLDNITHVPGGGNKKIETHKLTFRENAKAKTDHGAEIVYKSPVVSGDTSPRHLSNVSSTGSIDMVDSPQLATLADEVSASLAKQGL
T5 sequence (P05067 672-713 limits assumed): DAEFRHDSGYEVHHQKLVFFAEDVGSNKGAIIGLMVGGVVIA

ThT TTR81-127 (%), maximum thioflavin T (ThT) intensity in percentage [2]: 54.7 ± 1.4%
remaining activity at 100 µM ([2]; read-out: ThT TTR81-127 (%), maximum thioflavin T (ThT) intensity in percentage): 54.7 ± 1.4%
thioflavin T fluorescence intensity, Aβ1-42 [6]: 27.5±4%
α-syn oligomer formation (PICUP) ([7]; listed as nitro-1,2-benzothiazol-3-amine): reduced the oligomer formation
Structure (SMILES): Nc1nsc2ccc([N+](=O)[O-])cc12 [A, 5-nitro-1,2-benzothiazol-3-amine]
tau isoform 2N4R fibrils by TEM [1]: clear effect in reducing α-syn and tau fibrillization
thioflavin T fluorescence intensity, TTR101-125 [3]: significantly more effective at preventing the aggregation
α-syn fibrils by TEM [4]: clear effect in reducing α-syn and tau fibrillization
tau isoform 2N4R oligomer formation (PICUP), dose dependence ([5]; 3.125-50 μM): reduced the oligomer formation in a dose-dependent manner
tau isoform 2N4R oligomer formation (PICUP) ([5]; compound 50 μM): reduced α-syn and tau isoform 2N4R oligomer formation
α-syn oligomer formation (PICUP), dose dependence ([7]; 3.125-50 μM): reduced the oligomer formation in a dose-dependent manner
α-syn oligomer formation (PICUP) ([7]; listed as 5-nitro-1,2-benzothiazol-3-amine): reduced α-syn and tau isoform 2N4R oligomer formation
